Reference: US11401286B2 (Tetra Discovery Partners, LLC, priority 2012, dated 2022)
Where a name gives a salt, the structure may show the parent alone.

Tested on: recombinant human PDE4
Conditions: reported value; read-out: IC50 with respect to inhibiting recombinant human PDE4; cited from earlier work

Row | SMILES | IC50
1 | COc1ccc(C2CNC(=O)C2)cc1OC1CCCC1 (stereo not shown) [rolipram] | ~200 nM

Molecular target: PDE4D7 (Homo sapiens (Human), UniProt Q08499)
Conditions: read-out: PDE4D7 IC50; PDE4D7 without asterisk

Chain of PDE4D7 (Q08499 other isoform, or with tags, fused parts or gaps): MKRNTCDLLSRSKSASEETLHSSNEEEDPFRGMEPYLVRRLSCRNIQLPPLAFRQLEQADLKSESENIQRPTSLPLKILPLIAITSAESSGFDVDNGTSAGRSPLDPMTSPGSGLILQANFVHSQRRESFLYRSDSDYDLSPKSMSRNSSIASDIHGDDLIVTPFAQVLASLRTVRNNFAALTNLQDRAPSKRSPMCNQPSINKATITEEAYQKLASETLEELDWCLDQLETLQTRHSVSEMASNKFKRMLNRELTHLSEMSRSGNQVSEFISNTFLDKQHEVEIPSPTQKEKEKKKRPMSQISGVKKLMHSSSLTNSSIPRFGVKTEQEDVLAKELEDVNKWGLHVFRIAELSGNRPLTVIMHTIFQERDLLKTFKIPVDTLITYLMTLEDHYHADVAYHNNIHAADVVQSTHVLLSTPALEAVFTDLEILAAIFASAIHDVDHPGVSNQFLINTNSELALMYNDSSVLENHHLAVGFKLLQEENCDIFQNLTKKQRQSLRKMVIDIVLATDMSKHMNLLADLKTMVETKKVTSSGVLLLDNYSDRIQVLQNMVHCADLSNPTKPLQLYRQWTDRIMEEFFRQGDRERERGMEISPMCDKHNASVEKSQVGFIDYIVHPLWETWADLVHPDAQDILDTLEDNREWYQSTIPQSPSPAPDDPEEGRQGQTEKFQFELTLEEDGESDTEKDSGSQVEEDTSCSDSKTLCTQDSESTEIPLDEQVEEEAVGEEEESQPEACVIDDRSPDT

Row | SMILES | IC50
2 | O=S1(=O)CCCc2nc(C3CCCC3)nc(Nc3ccc(CCO)cc3)c21 [Example 285, 2-Cyclopentyl-4-((4-(2-hydroxyethyl)phenyl)amino)-7,8-dihydro-6H-thiopyrano[3,2-d]pyrimidine 5,5-dioxide] | < 1000 nM
3 | NC(=O)Cc1ccc(Nc2nc(C3CCCC3)nc3c2S(=O)(=O)CCC3)cc1 [Example 286, 2-(4-((2-cyclopentyl-5,5-dioxido-7,8-dihydro-6H-thiopyrano[3,2-d]pyrimidin-4-yl)amino)phenyl)acetamide] | < 1000 nM
4 | O=S1(=O)CCCc2nc(C3CCCC3)nc(Cc3ccc(CCO)cc3)c21 [Example 288, 2-Cyclopentyl-4-(4-(2-hydroxyethyl)benzyl)-7,8-dihydro-6H-thiopyrano[3,2-d]pyrimidine 5,5-dioxide] | < 1000 nM
5 | N#CCc1ccc(Nc2c(Cl)c(-c3cccc(Cl)c3)nc3c2CCC3)cc1 [Example 291, 2-(4-((3-Chloro-2-(3-chlorophenyl)-6,7-dihydro-5H-cyclopenta[b]pyridin-4-yl)amino)phenyl)acetonitrile hydrochloride] | > 1000 nM
6 | OB1OCc2cc(Nc3nc(-c4ccc(Cl)s4)nc4c3CCC4)ccc21 [Example 293, 2-(5-Chloro-2-thienyl)-N-(1-hydroxy-3H-2,1-benzoxaborol-5-yl)-6,7-dihydro-5H-cyclopenta[d]pyrimidin-4-amine] | < 1000 nM
7 | OB1OCc2cc(Nc3nc(-c4ccc(Cl)cc4)nc4c3CCC4)ccc21 [Example 295, 2-(4-Chlorophenyl)-N-(1-hydroxy-3H-2,1-benzoxaborol-5-yl)-6,7-dihydro-5H-cyclopenta[d]pyrimidin-4-amine] | > 1000 nM
8 | O=C(O)Cc1ccc(Nc2cc(C(F)(F)F)nc(-c3ccc(Cl)s3)n2)cc1 [Example 296, 2-[4-[[2-(5-Chloro-2-thienyl)-6-(trifluoromethyl)pyrimidin-4-yl]amino]phenyl]acetic acid] | > 1000 nM
9 | Clc1ccc(-c2nc(Nc3ccc(Cc4nnn[nH]4)cc3)cc(C3CC3)n2)s1 [Example 298, 2-(5-Chloro-2-thienyl)-6-cyclopropyl-N-[4-(1H-tetrazol-5-ylmethyl)phenyl]pyrimidin-4-amine] | > 1000 nM
10 | CCc1c(C)nc(-c2ccc(Cl)s2)nc1Nc1ccc(CC(=O)NC#N)cc1 [Example 301, 2-[4-[[2-(5-Chloro-2-thienyl)-5-ethyl-6-methyl-pyrimidin-4-yl]amino]phenyl]-N-cyano-acetamide] | > 1000 nM
11 | CCc1c(C)nc(-c2ccc(Cl)s2)nc1Nc1ccc(Cc2nc(C(=O)OC)c[nH]2)cc1 [Example 305, Methyl 2-[[4-[[2-(5-chloro-2-thienyl)-5-ethyl-6-methyl-pyrimidin-4-yl]amino]phenyl]methyl]-1H-imidazole-4-carboxylate] | > 1000 nM
12 | CCc1c(C)nc(-c2ccc(Cl)s2)nc1Nc1ccc(Cc2nc(C(N)=O)c[nH]2)cc1 [Example 310, 2-[[4-[[2-(5-Chloro-2-thienyl)-5-ethyl-6-methyl-pyrimidin-4-yl]amino]phenyl]methyl]-1H-imidazole-4-carboxamide] | > 1000 nM
13 | CCc1c(C)nc(-c2ccc(Cl)s2)nc1NCc1ccc(B(O)O)cc1 [Example 311, [4-[[[2-(5-Chloro-2-thienyl)-5-ethyl-6-methyl-pyrimidin-4-yl]amino]methyl]phenyl]boronic acid] | > 1000 nM
14 | CCc1c(C)nc(-c2ccc(Cl)s2)nc1Nc1ccc(CS(C)(=O)=O)cc1 [Example 317, 2-(5-chloro-2-thienyl)-5-ethyl-6-methyl-N-[4-(methylsulfonylmethyl)phenyl]pyrimidin-4-amine] | > 1000 nM

Other lines, results leading:

Row | IC50 | SMILES
15 | < 1000 nM | NC(=O)Cc1ccc(Nc2nc(C3CCCC3)nc3c2SCCC3)cc1 [Example 284, 2-(4-((2-cyclopentyl-7,8-dihydro-6H-thiopyrano[3,2-d]pyrimidin-4-yl)amino)phenyl)acetamide]
16 | < 1000 nM | O=S1(=O)CCCc2nc(C3CCCC3)nc(Nc3ccc(CCCO)cc3)c21 [Example 287, 2-Cyclopentyl-4-((4-(3-hydroxypropyl)phenyl)amino)-7,8-dihydro-6H-thiopyrano[3,2-d]pyrimidine 5,5-dioxide]
17 | > 1000 nM | Cc1ccc(Cc2cc(-c3cccc(Cl)c3)nc3c2CCC3)cc1 [Example 289, 2-(3-Chlorophenyl)-4-(4-methylbenzyl)-6,7-dihydro-5H-cyclopenta[b]pyridine hydrochloride]
18 | > 1000 nM | Fc1ccc(Nc2cc(-c3cccc(Cl)c3)nc3c2CCC3)cc1 [Example 290, 2-(3-Chlorophenyl)-N-(4-fluorophenyl)-6,7-dihydro-5H-cyclopenta[b]pyridin-4-amine hydrochloride]
19 | < 1000 nM | CCc1c(C)nc(-c2ccc(Cl)s2)nc1Nc1ccc(B(O)O)cc1 [Example 292, [4-[[2-(5-Chloro-2-thienyl)-5-ethyl-6-methyl-pyrimidin-4-yl]amino]phenyl]boronic acid]
20 | > 1000 nM | OB1OCc2cc(Nc3nc(-c4cccc(Cl)c4)nc4c3CCC4)ccc21 [Example 294, 2-(3-Chlorophenyl)-N-(1-hydroxy-3H-2,1-benzoxaborol-5-yl)-6,7-dihydro-5H-cyclopenta[d]pyrimidin-4-amine]
21 | > 1000 nM | O=C(O)Cc1ccc(Nc2cc(C3CC3)nc(-c3ccc(Cl)s3)n2)cc1 [Example 297, 2-[4-[[2-(5-Chloro-2-thienyl)-6-cyclopropyl-pyrimidin-4-yl]amino]phenyl]acetic acid]
22 | > 1000 nM | CCc1c(C)nc(-c2ccc(Cl)s2)nc1Nc1ccc(Cn2cccn2)cc1 [Example 299, 2-(5-Chloro-2-thienyl)-5-ethyl-6-methyl-N-[4-(pyrazol-1-ylmethyl)phenyl]pyrimidin-4-amine]
23 | > 1000 nM | CCc1c(C)nc(-c2ccc(Cl)s2)nc1Nc1ccc(Cc2noc(=O)[nH]2)cc1 [Example 302, 3-[[4-[[2-(5-Chloro-2-thienyl)-5-ethyl-6-methyl-pyrimidin-4-yl]amino]phenyl]methyl]-4H-1,2,4-oxadiazol-5-one]
24 | > 1000 nM | CCc1c(C)nc(-c2ccc(Cl)s2)nc1Nc1ccc(C2=C(O)CCC2=O)cc1 [Example 303, 2-[4-[[2-(5-Chloro-2-thienyl)-5-ethyl-6-methyl-pyrimidin-4-yl]amino]phenyl]-3-hydroxy-cyclopent-2-en-1-one]
25 | > 1000 nM | CCc1c(C)nc(-c2ccc(Cl)s2)nc1Nc1ccc(Cn2cc(Cl)cn2)cc1 [Example 304, N-[4-[(4-Chloropyrazol-1-yl)methyl]phenyl]-2-(5-chloro-2-thienyl)-5-ethyl-6-methyl-pyrimidin-4-amine]
26 | > 1000 nM | CCc1c(C)nc(-c2ccc(Cl)s2)nc1Nc1ccc(Cc2nc(C(=O)O)c[nH]2)cc1 [Example 306, 2-[[4-[[2-(5-Chloro-2-thienyl)-5-ethyl-6-methyl-pyrimidin-4-yl]amino]phenyl]methyl]-1H-imidazole-4-carboxylic acid]
27 | < 1000 nM | CCCNC(=O)Cc1ccc(Nc2nc(-c3ccc(Cl)s3)nc(C)c2CC)cc1 [Example 307, 2-[4-[[2-(5-Chloro-2-thienyl)-5-ethyl-6-methyl-pyrimidin-4-yl]amino]phenyl]-N-propyl-acetamide]
28 | > 1000 nM | CCc1c(C)nc(-c2ccc(Cl)s2)nc1Nc1ccc(CC(=O)NC)cc1 [Example 308, 2-[4-[[2-(5-Chloro-2-thienyl)-5-ethyl-6-methyl-pyrimidin-4-yl]amino]phenyl]-N-methyl-acetamide]
29 | < 1000 nM | CCNC(=O)Cc1ccc(Nc2nc(-c3ccc(Cl)s3)nc(C)c2CC)cc1 [Example 309, 2-[4-[[2-(5-Chloro-2-thienyl)-5-ethyl-6-methyl-pyrimidin-4-yl]amino]phenyl]-N-ethyl-acetamide]
30 | > 1000 nM | CCc1c(C)nc(-c2ccc(Cl)s2)nc1Nc1ccc2c(c1)CS(=O)(=O)C2 [Example 312, 2-(5-Chloro-2-thienyl)-N-(2,2-dioxo-1,3-dihydro-2-benzothiophen-5-yl)-5-ethyl-6-methyl-pyrimidin-4-amine]
31 | < 1000 nM | Clc1cccc(-c2nc3c(c(Nc4ccc(Cc5nn[nH]n5)cc4)n2)SCCC3)c1 [Example 313, 2-(3-Chlorophenyl)-N-[4-(2H-tetrazol-5-ylmethyl)phenyl]-7,8-dihydro-6H-thiopyrano[3,2-d]pyrimidin-4-amine]
32 | < 1000 nM | N#CNC(=O)Cc1ccc(Nc2nc(-c3cccc(Cl)c3)nc3c2SCCC3)cc1 [Example 314, 2-[4-[[2-(3-Chlorophenyl)-7,8-dihydro-6H-thiopyrano[3,2-d]pyrimidin-4-yl]amino]phenyl]-N-cyano-acetamide]
33 | < 1000 nM | N#CNC(=O)Cc1ccc(Nc2nc(-c3cccc(Cl)c3)nc3c2S(=O)(=O)CCC3)cc1 [Example 315, 2-[4-[[2-(3-Chlorophenyl)-5,5-dioxo-7,8-dihydro-6H-thiopyrano[3,2-d]pyrimidin-4-yl]amino]phenyl]-N-cyano-acetamide]
34 | < 1000 nM | O=S1(=O)CCCc2nc(-c3cccc(Cl)c3)nc(Nc3ccc(Cc4nn[nH]n4)cc3)c21 [Example 316, 2-(3-Chlorophenyl)-5,5-dioxo-N-[4-(2H-tetrazol-5-ylmethyl)phenyl]-7,8-dihydro-6H-thiopyrano[3,2-d]pyrimidin-4-amine]
